Data on 4 molecules can be found in article PMC6691773, “Non-covalent immunoproteasome inhibitors induce cell cycle arrest in multiple myeloma MM.1R cells” (Journal of Enzyme Inhibition and Medicinal Chemistry, 2019).

The target in assay [1] is β5c subunit of constitutive proteasome. On the set-up: method as in PMID 24561716, PMID 24946214. To be noted: ChT-L activity of constitutive proteasome; read-out: Ki against β5c subunit; cited from earlier work.
Assay [2] concerns the target Human 20S immunoproteasome β5i (Homo sapiens, UniProt P28062). Nature of the assay: 20S immunoproteasome inhibition, β5i chymotrypsin-like activity (Suc-Leu-Leu-Val-Tyr-AMC). The settings on record: for inhibition at 100 µM: read-out: inhibition of one or two ChT-L activities.
Procedure: (§3) Human 20S immunoproteasome was incubated at 30 °C at a final concentration of 0.004 mg/mL with test compound present at variable concentrations. The reaction buffer consisted of 50 mM Tris HCl, pH 7.4, 10 mM NaCl, 25 mM KCl, 1 mM MgCl2, 0.03% SDS. Product release from substrate hydrolysis (50 µM) was monitored continuously over a period of 10 min.
Assay [3] has as its target Human 20S immunoproteasome β1i (Homo sapiens, UniProt P28065). Nature of the assay: 20S immunoproteasome inhibition, β1i chymotrypsin-like activity (Ac-Pro-Ala-Leu-AMC).
Procedure: as §3
A further assay concerns ubiquitin in MM.1R cells. Nature of the assay: Ubiquitin accumulation by western blot. The assay is classed as cell-based, human. To be noted: 24 h, versus ctrl. On the procedure:
(§1) To test the inhibitory effect on proteasome activity, ubiquitin, cyclins, CDK, NF-kB and pNF-kB were assessed by western blot. […] After 24 h, cells were collected and protein extracted for analysis. Protein extraction and western blot analysis were performed as previously described.
(§2) Briefly, a total of 15 µg of proteins were loaded in each lane and specific antibodies were used to detect ubiquitin (Abcam, Cambridge, UK), cyclin A, cyclin B, cyclin D1, CDK1, CDK4/6, NF-kB, pNF-kB, PARP, and Caspase-3 (Cell Signaling, Danvers, MA, United States). Beta actin (Cell Signaling), was used on stripped blots as loading control. The images have been acquired using a dedicated software and densitometric data were expressed as integrated intensity and reported as means and SEM.
To test the efficacy of these compounds in inhibiting ubiquitinated protein degradation, a western blot analysis of ubiquitin was performed (Figure 3). In fact, considering that proteasome inhibition leads the cells to accumulate ubiquitinated protein into the cytoplasm, we decided to assess the changes in levels of total ubiquitinated proteins indirectly, by detecting changes in total ubiquitin levels, by western blot analysis. […] It is worth noting that these changes were dose-dependent, this adding an additional level of confidence in our experimental approach.
For orientation: A western blot detects proteins with antibodies after separation by electrophoresis.

In the next assay the test system is CDK4/6 in MM.1R cells. In words: CDK4/6 level by western blot. Type of assay: cell-based, human. The settings on record: 24 h, p < .0005. On the procedure: as §1, §2
The next assay deals with PARP in MM.1R cells. In words: PARP expression by western blot. To be noted: 24 h. Type of assay: cell-based, human. As for the experimental part: as §1, §2
The test system of another assay is CDK1 in MM.1R cells. Nature of the assay: CDK1 level by western blot. Type of assay: cell-based, human. The settings on record: 24 h, p < .05. On the procedure:
as §1, §2

A further assay concerns NF-kB in MM.1R cells. In words: NF-kB level by western blot. Type of assay: cell-based, human. To be noted: 24 h. As for the experimental part: as §1, §2
In a further assay the test system is Caspase-3 in MM.1R cells. Nature of the assay: Caspase-3 expression by western blot. The assay is classed as cell-based, human. The settings on record: 24 h. On the procedure:
as §1, §2

A further assay relates to cyclin A in MM.1R cells. Nature of the assay: Cyclin A level by western blot. Type of assay: cell-based, human. To be noted: 24 h, 15 and 20 µM. As for the experimental part: as §1, §2
The subject of the next assay is cyclin B in MM.1R cells. Nature of the assay: Cyclin B level by western blot. The assay is classed as cell-based, human. To be noted: 24 h, 20 µM. As for the experimental part: as §1, §2
The next assay relates to cyclin D1 in MM.1R cells. Nature of the assay: Cyclin D1 level by western blot. Type of assay: cell-based, human. The settings on record: 24 h, 20 µM. As for the experimental part:
as §1, §2

Assay [4] addresses T1, Human 20S immunoproteasome β2i (Homo sapiens, UniProt P40306).
T1 construct: Human 20S immunoproteasome, isolated from human spleen; purchased Enzo Life Science; host or cells: human spleen (tissue-isolated)
Nature of the assay: 20S immunoproteasome inhibition, β2i trypsin-like activity (Boc-Leu-Arg-Arg-AMC). Type of assay: biochemical. To be noted: 100 µM inhibitor, preliminary screening. On the procedure:
Human 20S immunoproteasome, isolated from human spleen, was purchased from Enzo Life Science Supplier. The three distinct proteolytic activities of the 20S immunoproteasome were measured by monitoring the hydrolysis of the peptidyl 7-amino-4-methyl coumarin substrates Suc-Leu-Leu-Val-Tyr-AMC (Bachem), Boc-Leu-Arg-Arg-AMC (Bachem) and Ac-Pro-Ala-Leu-AMC (Biomol GmbH) for β5i, β2i and β1i activities of immunoproteasome, respectively. […] Inhibitor solutions were prepared from stocks in DMSO. Each independent assay was performed twice in duplicate in 96-well-plates in a total volume of 200 µL. Fluorescence of the product AMC of the substrate hydrolyses was measured using an Infinite 200 PRO microplate reader (Tecan, Männedorf, Switzerland) at 30 °C with a 380 nm excitation filter and a 460 nm emission filter.
Human 20S immunoproteasome was incubated at 30 °C at a final concentration of 0.004 mg/mL with test compound present at variable concentrations. The reaction buffer consisted of 50 mM Tris HCl, pH 7.4, 50 mM NaCl, 0.5 mM EDTA III, 0.03% SDS. Product release from substrate hydrolysis (50 µM) was monitored continuously over a period of 10 min.

The next assay concerns pNF-kB in MM.1R cells. In words: pNF-kB level by western blot. Type of assay: cell-based, human. The settings on record: 24 h. On the procedure: as §1, §2
The test system of another assay is MM.1R cells. Nature of the assay: Cytotoxicity by MTT assay. Type of assay: cell-based. To be noted: Homo sapiens, 24 h, dexamethasone-resistant cells, read-out: EC50 against MM.1R cells. On the procedure: To test the efficacy of 5 and 6 a cell viability assay was performed. Human multiple myeloma cells (MM.1R; ATCC® CRL-2975™) resistant to dexamethasone were purchased by LGC Standards (Milan, Italy) and cultured under standard conditions (37 °C, 5% CO2) with standard RPMI 1640 medium added with L-glutamine, 10% foetal bovine serum, and 1% antibiotic mixture (penicillin/streptomycin) in sterile flasks. Cells were grown for a week before the assay. Compounds 5–6 were tested at different doses (1–10-20–40-80–100 µM) in a 96 well plate for 24 h to determine the cytotoxic effect. […] At the end of the 5 h, the medium was removed and the insoluble formazan crystals were dissolved with 200 µl/well of dimethyl sulphoxide (DMSO), and the absorbance was read at 540 and 620 nm. The difference between the two absorbance values was used to calculate mean for each replicate and further assess cytotoxicity. […] Results were expressed as % of vitality and reported as means and SEM.
To test the efficacy of compounds 5–6 in a cell system, we used dexamethasone-resistant human multiple myeloma cells (MM.1R), which are less responsive to chemotherapy, and are representative of patients in the later stages of the disease, as previously described. […] MM.1R cell survival was determined by the tetrazolium dye MTT assay and untreated cells were used as reference and assumed as the 100% of vital cells (Figure 2).
(In general: Tetrazolium assays rely on reduction of a dye to a coloured formazan, in cell work by metabolically active cells.)

Broadly, the Ki is a measure of affinity in units of concentration, obtained from inhibition or displacement. A word on the inhibition: it is how much of the control response was suppressed. In general, EC50 refers to the midpoint of the concentration-response curve.

As for `CC(C)CCNC(=O)Cn1ccc2c(c1=O)CCCN2` [Compound 3], the Ki in assay [1] was 10.5 µM.
For `CC(C)CCNC(=O)Cn1ccc2ncccc2c1=O` [Compound 1], the Ki in [2] came out at 4.39 µM; in assay [3], 4.9 µM.
Regarding `CC(C)CCNC(=O)Cn1ccc2ccc(Br)cc2c1=O` [Compound 6], the values for the Ki in assay [2], in assay [3] and in assay [1] were 4.39 ± 0.18 µM, 4.9 ± 0.04 µM and 2.34 µM, respectively. The inhibition at 100 µM is more than 70% in assay [2] and 24% in assay [4]. Further, in the assay on ubiquitin in MM.1R cells (20 µM), the ubiquitin accumulation result was “significant increase”. The CDK4/6 level entry in the assay on CDK4/6 in MM.1R cells is “changed”. For the same molecule, in the assay on PARP in MM.1R cells, the PARP expression entry is “No significant difference”. Besides, in the assay with CDK1 in MM.1R cells, the CDK-1 level entry is on record as “changed”. In the assay on NF-kB in MM.1R cells, the NF-kB level result is reported as “dose-dependent increase”. The Caspase-3 expression result in the assay with Caspase-3 in MM.1R cells was “No significant difference”. Moreover, the “cyclin A level” value in the assay with cyclin A in MM.1R cells was “very significant (p < .005) reduction”. Also, the “cyclin B level” value in the assay with cyclin B in MM.1R cells is “consistent reduction”. The “cyclin D1 level” value in the assay with cyclin D1 in MM.1R cells was “consistent reduction”. Moreover, in the assay with pNF-kB in MM.1R cells, the pNF-kB level result was “trend of reduction”. Besides, in the assay on MM.1R cells, the EC50 worked out at 17.8 µM.
In the case of `CC(C)CCNC(=O)Cn1cc(Br)c2ncccc2c1=O` [Compound 5], the Ki in [2] is 6.04 ± 0.29 µM; in assay [1] it was 0.56 µM. Besides, the figures for the inhibition at 100 µM in assay [2], in assay [3] (read-out: % of inhibition at 100 µM β1i) and in assay [4] were more than 70%, 36% and 19%, respectively. Further, the ubiquitin accumulation result in the assay with ubiquitin in MM.1R cells (all tested concentrations) is on record as “no significant increase”. Moreover, the PARP expression result with PARP in MM.1R cells is “No significant difference”. The Caspase-3 expression result with Caspase-3 in MM.1R cells was “No significant difference”. Also, in the assay with cyclin A in MM.1R cells, the “cyclin A level” value is reported as “No trend of reduction”. Besides, the “cyclin D1 level” value in the assay on cyclin D1 in MM.1R cells was “able to reduce”. Further, the pNF-kB level result in the assay on pNF-kB in MM.1R cells was “paradoxical increase”. Moreover, in the assay with MM.1R cells, the EC50 amounted to 21.2 µM.
